Results from patent US10822336B2, “Crystals of [2-(1-methyl-1H-pyrazol-4-yl)-6(morpholin-4-yl)-9H-purin-8-yl][4-(morpholin-4-yl)piperidin-1-yl]methanone and pharmaceutically acceptable salt thereof” (Daiichi Sankyo Company, Limited, priority 2016, dated 2020).

Key:
[1] = Method for examining solubility (JP1, JP2); format: physicochemical; details: pH 1.2, simulated gastric fluid, thermodynamic from solid; Solution 1 (JP1) according to the Japanese Pharmacopoeia, room temperature
Procedure: Method for Examining Solubility
A 10 mmol/L solution of the compound (I) in DMSO was prepared. The 10 mmol/L DMSO stock solution (100 μL) was dispensed to two labelled glass tubes: one for Solution 1 (JP1) according to the Japanese Pharmacopoeia and the other for Solution 2 (JP2) according to the Japanese Pharmacopoeia. DMSO was allowed to evaporate from each of the glass tubes, JP1 and JP2 solutions (500 μL) were added in the corresponding glass tubes. These glass tubes were ultrasonically treated for one minute and placed on a shaker for 30 minutes every 5 minutes at the intervals of 30 seconds. The glass tubes were placed in a dark place at room temperature for one hour and the solutions were filtered through a membrane filter. The filtrates were diluted 2 and 10 fold. The resultant test solutions were analyzed and quantified with UPLC (standard product: a 10 mmol/L solution in DMSO was serially diluted with a 50% aqueous acetonitrile solution to prepare two solutions: a 100 μmol/L standard solution and a 5 μmol/L standard solution) relative to the standard.

PI3Kα = molecular target: T1, PI3Kα (Homo sapiens, UniProt P42336); experiment: In-vitro enzyme assay (Kinase-Glo luminescent kinase assay), PI3Kα; format: biochemical; details: enzyme 2.29 μg/mL, ATP 10 μM, PIP2 60 μM, 2 hours; read-out: inhibitory activity (IC50) against PI3Kα
T1 construct: purchased Proteros, Germany
T1 sequence (P42336 whole entry, species assumed): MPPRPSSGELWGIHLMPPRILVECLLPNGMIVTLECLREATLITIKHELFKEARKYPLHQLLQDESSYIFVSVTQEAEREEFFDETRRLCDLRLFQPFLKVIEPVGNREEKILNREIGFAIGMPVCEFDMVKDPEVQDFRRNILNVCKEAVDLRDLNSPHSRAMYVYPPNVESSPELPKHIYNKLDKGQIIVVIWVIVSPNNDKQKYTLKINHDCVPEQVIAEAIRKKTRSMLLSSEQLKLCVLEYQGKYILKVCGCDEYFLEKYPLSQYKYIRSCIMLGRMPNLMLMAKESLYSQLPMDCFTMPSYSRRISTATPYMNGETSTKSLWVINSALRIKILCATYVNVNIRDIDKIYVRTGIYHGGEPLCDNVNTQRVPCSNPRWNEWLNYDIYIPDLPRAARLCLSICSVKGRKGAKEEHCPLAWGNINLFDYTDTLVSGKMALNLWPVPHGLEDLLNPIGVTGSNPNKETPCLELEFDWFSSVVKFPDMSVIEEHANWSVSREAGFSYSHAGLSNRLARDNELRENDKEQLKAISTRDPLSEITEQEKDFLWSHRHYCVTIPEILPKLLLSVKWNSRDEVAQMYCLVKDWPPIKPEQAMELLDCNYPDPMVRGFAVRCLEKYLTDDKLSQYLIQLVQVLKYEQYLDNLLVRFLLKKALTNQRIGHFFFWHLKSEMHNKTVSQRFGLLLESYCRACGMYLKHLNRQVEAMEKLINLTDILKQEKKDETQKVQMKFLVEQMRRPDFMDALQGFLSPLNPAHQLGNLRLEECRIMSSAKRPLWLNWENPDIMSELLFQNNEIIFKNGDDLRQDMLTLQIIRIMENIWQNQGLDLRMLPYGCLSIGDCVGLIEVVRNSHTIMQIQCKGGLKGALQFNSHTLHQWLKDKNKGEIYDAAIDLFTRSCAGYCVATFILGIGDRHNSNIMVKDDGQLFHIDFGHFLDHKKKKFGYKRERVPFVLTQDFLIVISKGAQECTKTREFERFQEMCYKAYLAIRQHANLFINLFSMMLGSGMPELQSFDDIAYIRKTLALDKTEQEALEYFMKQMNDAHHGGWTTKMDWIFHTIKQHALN
T1 sequence (P27986 whole entry partner, species assumed): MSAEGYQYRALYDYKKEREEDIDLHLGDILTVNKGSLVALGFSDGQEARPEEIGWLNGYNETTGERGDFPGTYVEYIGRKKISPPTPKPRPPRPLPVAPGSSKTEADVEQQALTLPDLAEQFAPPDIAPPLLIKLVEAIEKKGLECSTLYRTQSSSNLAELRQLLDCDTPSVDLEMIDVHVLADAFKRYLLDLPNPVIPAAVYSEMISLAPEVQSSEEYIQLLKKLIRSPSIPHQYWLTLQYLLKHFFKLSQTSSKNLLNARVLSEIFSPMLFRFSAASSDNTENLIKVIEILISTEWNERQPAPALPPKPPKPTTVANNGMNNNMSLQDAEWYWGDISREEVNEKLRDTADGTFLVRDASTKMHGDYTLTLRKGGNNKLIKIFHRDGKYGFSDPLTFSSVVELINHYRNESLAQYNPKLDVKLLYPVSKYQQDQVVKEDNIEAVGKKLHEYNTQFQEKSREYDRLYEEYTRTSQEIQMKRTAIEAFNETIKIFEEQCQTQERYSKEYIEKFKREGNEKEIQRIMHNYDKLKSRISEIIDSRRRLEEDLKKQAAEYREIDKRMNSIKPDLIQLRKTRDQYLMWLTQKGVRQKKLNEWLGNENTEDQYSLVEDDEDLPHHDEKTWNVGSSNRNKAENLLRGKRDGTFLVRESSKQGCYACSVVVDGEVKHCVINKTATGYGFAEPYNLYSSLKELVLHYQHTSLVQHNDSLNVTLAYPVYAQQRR
Procedure: (§1) A Kinase-Glo luminescent kinase assay kit (manufactured by Promega) was used for measuring kinase activity. In this assay, the amount of ATP remaining in a solution after a kinase reaction was measured. To confirm the effect of a compound on PI3Kδ inhibition, 2.29 μg/ml recombinant PI3Kδ enzyme (Proteros, Germany) was added to a reaction mixture containing 10 mM MgCl2, 5 mM DTT, 60 μM phosphatidylinositol diphosphate (PIP2) and an assay buffer (containing 50 mM HEPES, pH7.4, 50 mM NaCl, 0.05% CHAPS) supplemented with 10 μM ATP in a final volume of 15 μl/well, in the presence and absence of compound (I), in a 384-well plate. The reaction mixture was incubated at room temperature for 2 hours. At the end of the incubation period, the same volume of Kinase-Glo plus (Promega, V3772) was added per well. After the reaction mixture was incubated at room temperature for 10 minutes in a dark place, emission was measured. The results were calculated by measuring the emission unit of the test sample relative to a blank containing no enzyme.
(§2) Using specific recombinant enzymes (Proteros, Germany) PI3Kα, PI3Kβ and PI3Kγ, inhibitory activities of compound (I) against each of the kinases were examined. The assay conditions of kinases (PI3Kα, PI3Kβ, PI3Kγ and PI3Kδ) were as follows.

[2] = test system: HDM-induced chronic asthma (eosinophils in bronchoalveolar lavage fluid); experiment: House dust mite (HDM)-induced chronic asthma model of Balb/c mouse; format: in vivo; details: Eosinophil; bid, oral, third to fifth week, female Balb/c mouse, 48 hours after final HDM exposure
Procedure: House Dust Mite (HDM)-Induced Chronic Asthma Model of Balb/c Mouse
The protocol used herein was described in Am. J. Respir. Crit. Care Med., 2004; 169: 378 to 385 pages.
A female Balb/c mouse was intranasally exposed to a purified HDM (Dermatophagoides pteronyssinus) extract at maximum for 5 successive weeks at a frequency of 5 days/week (protein (25 μg) in physiological saline (20 μl)). The compound (I) was orally administered twice a day from the third week to fifth week. Forty eight hours after the final HDM exposure, the animal was euthanized and bronchoalveolar lavage fluid was collected. The cell suspension was treated, and the absolute number of eosinophils were counted.

PI3Kγ = molecular target: T2, PI3Kγ (Homo sapiens, UniProt P48736); experiment: In-vitro enzyme assay (Kinase-Glo luminescent kinase assay), PI3Kγ; format: biochemical; details: enzyme 2.29 μg/mL, ATP 10 μM, PIP2 60 μM, 2 hours; read-out: inhibitory activity (IC50) against PI3Kγ
T2 construct: purchased Proteros, Germany
T2 sequence (P48736 whole entry, species assumed): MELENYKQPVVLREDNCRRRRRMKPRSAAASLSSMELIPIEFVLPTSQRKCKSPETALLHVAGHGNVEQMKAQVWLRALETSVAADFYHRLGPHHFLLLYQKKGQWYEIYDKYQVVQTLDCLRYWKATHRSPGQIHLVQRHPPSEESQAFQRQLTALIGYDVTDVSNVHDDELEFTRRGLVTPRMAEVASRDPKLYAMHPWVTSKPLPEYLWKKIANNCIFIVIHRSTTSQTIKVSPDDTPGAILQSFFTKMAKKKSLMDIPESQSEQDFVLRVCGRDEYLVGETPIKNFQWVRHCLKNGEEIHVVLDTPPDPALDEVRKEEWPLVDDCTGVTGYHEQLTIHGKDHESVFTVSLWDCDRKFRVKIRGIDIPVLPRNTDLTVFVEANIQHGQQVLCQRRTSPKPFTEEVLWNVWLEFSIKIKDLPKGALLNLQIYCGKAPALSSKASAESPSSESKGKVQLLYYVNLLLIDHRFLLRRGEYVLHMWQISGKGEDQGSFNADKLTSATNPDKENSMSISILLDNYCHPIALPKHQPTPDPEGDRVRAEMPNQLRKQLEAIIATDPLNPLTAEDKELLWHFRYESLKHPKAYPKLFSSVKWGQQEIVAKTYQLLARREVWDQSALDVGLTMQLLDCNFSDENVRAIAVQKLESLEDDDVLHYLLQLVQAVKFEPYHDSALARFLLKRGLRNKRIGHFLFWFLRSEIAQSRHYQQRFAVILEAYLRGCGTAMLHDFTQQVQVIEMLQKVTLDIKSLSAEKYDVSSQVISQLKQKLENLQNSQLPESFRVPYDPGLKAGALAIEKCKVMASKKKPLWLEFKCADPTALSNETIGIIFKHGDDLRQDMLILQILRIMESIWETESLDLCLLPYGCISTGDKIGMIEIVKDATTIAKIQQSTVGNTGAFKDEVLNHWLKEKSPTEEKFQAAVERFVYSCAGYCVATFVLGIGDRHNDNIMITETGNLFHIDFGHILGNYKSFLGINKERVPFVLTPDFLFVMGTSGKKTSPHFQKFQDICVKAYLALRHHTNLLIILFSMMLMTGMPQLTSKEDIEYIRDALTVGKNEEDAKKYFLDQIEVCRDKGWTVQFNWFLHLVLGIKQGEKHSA
Procedure: as §1, §2

[3] = Oral bioavailability (BA) in mice; format: in vivo; details: plasma; male Swiss mouse, 10.0 mg/kg oral vs 3.0 mg/kg intravenous
Procedure: Oral Bioavailability (BA) in Mice
(§3) To a male Swiss mouse (23±3 g), the compound (I) was intravenously administered as a solution containing the compound (I) (0.3 mg/mL) in a vehicle containing polysorbate and dextrose (pH5.0) or orally as a suspension of the compound (I) (1.0 mg/mL) in methyl cellulose. The final dosage in the case of intravenous administration was 3.0 mg/body weight (1 kg) or that in the case of oral administration was 10.0 mg/body weight (1 kg). A plasma sample was analyzed for the compound (I) by the LC-MS/MS method. Pharmacokinetic parameters were estimated by moment analysis. WinNonlin software 6.1 (Pharsight) was used for estimating the PK parameters. Oral bioavailability was calculated based on dose-normalized oral exposure and intravenous plasma exposure amounts.

[4] = Oral bioavailability (BA) in rats; format: in vivo; details: plasma; female Wistar rat, 10.0 mg/kg oral vs 3.0 mg/kg intravenous
Procedure: Oral Bioavailability (BA) in Rats
as §3, with “female Wistar rat (210±10” for “male Swiss mouse (23±3”, “(2.0” for “(0.3”

[5] = test system: Ovalbumin-induced airway eosinophilia; experiment: Ovalbumin-induced airway eosinophilia model in Brown Norway rat; format: in vivo; details: Eosinophil; bid, oral gavage, male Brown Norway rat, 48 hours after ovalbumin challenge; read-out: ED50 value (eosinophils in bronchoalveolar lavage fluid)
Procedure: Ovalbumin-Induced Airway Eosinophilia Model in Brown Norway Rat
The protocol used herein was described in Clin. Exp. Immunol., 2001; 126: 9 to 15 pages and J. Pharmacol. Exp. Ther., 2011; 337: 145 to 54 pages.
A male Brown Norway rat was sensitized by intraperitoneally injecting a suspension (in 0.9% physiological saline sterilized) of ovalbumin (1 mg) and aluminum hydroxide (100 mg) on Day 0 and Day 7. On Day 14, the compound (I) was administered to the rat by oral gavage. One hour after the oral administration, the animal was housed in a Perspex chamber and exposed to 5% ovalbumin aerosol for 10 minutes. The compound (I) was administered once or twice a day on Day 14 and Day 15. Forty eight hours after ovalbumin challenge, the animal was euthanized and bronchoalveolar lavage fluid was collected. The cell suspension was treated, and the absolute number of eosinophils were counted.

PI3Kβ = molecular target: T3, PI3Kβ (Homo sapiens, UniProt P42338); experiment: In-vitro enzyme assay (Kinase-Glo luminescent kinase assay), PI3Kβ; format: biochemical; details: enzyme 2.29 μg/mL, ATP 10 μM, PIP2 60 μM, 2 hours; read-out: inhibitory activity (IC50) against PI3Kβ
T3 construct: purchased Proteros, Germany
T3 sequence (P42338 whole entry, species assumed): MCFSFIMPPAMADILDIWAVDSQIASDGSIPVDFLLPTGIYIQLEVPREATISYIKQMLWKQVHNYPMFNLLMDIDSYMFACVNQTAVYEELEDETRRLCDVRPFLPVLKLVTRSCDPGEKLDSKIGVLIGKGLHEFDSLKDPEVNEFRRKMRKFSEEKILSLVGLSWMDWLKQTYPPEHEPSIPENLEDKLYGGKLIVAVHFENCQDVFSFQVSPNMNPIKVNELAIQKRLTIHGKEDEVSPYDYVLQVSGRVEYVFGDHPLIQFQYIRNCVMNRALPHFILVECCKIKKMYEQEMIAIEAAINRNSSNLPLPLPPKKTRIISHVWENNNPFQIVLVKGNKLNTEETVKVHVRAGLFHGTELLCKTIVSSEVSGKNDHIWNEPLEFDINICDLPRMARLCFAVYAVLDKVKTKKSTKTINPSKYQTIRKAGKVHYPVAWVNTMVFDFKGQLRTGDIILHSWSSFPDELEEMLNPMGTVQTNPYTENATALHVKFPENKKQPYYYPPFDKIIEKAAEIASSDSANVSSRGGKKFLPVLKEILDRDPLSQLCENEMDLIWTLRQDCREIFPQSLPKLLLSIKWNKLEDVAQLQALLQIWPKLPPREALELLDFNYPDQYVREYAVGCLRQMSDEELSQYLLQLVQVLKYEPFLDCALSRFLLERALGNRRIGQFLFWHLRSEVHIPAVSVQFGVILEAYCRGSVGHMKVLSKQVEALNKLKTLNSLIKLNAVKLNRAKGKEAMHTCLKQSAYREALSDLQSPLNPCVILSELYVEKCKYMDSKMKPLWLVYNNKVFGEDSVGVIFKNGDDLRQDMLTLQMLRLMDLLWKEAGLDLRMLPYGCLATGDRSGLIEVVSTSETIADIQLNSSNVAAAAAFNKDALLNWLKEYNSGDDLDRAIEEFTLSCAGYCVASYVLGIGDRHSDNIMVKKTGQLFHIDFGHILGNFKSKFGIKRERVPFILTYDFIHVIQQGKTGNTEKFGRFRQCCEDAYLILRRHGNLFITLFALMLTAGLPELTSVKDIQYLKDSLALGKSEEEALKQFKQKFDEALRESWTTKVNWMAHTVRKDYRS
T3 sequence (P27986 whole entry partner, species assumed): as the sequence (P27986 whole entry partner, species assumed) above
Procedure: as §1, §2

[6] = test system: mitogen-induced IFN-γ release in mouse splenocytes; experiment: Phytohaemagglutinin (PHA) inducible interferon (IFN)-gamma release in mouse splenocytes; format: cell-based; details: Splenocyte; C57BL/6 mouse splenocytes, PHA 10 μg/ml, 48 hours, ELISA; read-out: activity (IC50), inhibition of IFN-γ release
Procedure: Phytohaemagglutinin (PHA) Inducible Interferon (IFN)-Gamma Release in Mouse Splenocytes
In a cell based assay system, the effect of a compound on mitogen-induced IFN-γ release in mouse splenocytes was evaluated [Blood (2010) 115: 2203 to 2213 pages; Current Protocols in Immunology (2004) 3.12.1 to 3.12.20].
Mouse splenocytes were obtained from the spleen of a C57BL/6 mouse and seeded in a 96-well tissue culture plate at a density of 250,000 cells/well. The splenocytes were treated with the compound (I), and thereafter, stimulated with PHA (10 μg/ml) for 48 hours. In this manner, an effect of compound (I) on inhibition of IFN-γ release was evaluated. The IFN-γ release in the cell culture supernatant was quantified by ELISA in accordance with the manufacturer's protocol (BD Biosciences, #555138).

solubility at 30 min [1]: ≥ 1200 µg/mL
IC50 (PI3Kα): ≥ 1000 nM
IC50 (PI3Kγ): ≥ 1000 nM
bioavailability [3]: 100%
bioavailability [4]: 88%
IC50 (PI3Kβ): ≥ 10000 nM
IC50 [6]: 6 nM
SMILES: Cn1cc(-c2nc(N3CCOCC3)c3nc(C(=O)N4CCC(N5CCOCC5)CC4)[nH]c3n2)cn1 [compound (I), [2-(1-methyl-1H-pyrazol-4-yl)-6-(morpholin-4-yl)-9H-purin-8-yl][4-(morpholin-4-yl)piperidin-1-yl]methanone]
ED50 [2]: 0.1 mg/kg
ED50 [5]: 0.3 mg/kg
